Assay results from the NIST ThermoML archive (doi:10.1021/je034087q).
± gives the expanded uncertainty stated by the source.

Experiment: xn = mol fraction of the nth substance listed
Details: Fluid (supercritical or subcritical phases)

CC(C)=O [acetone] + O=C=O showed a mass density (335.15 K, 10350 kPa, x2 = 0.909) of 583 ± 4 kg/m3, a mass density (335.15 K, 10420 kPa, x2 = 0.909) of 589 ± 4 kg/m3 and a mass density (335.15 K, 10500 kPa, x2 = 0.909) of 593 ± 4 kg/m3. For the same molecule, the mass density (335.15 K, 10590 kPa, x2 = 0.909) was 599 ± 4 kg/m3, the mass density (335.15 K, 10680 kPa, x2 = 0.909) was 604 ± 4 kg/m3 and the mass density (335.15 K, 10780 kPa, x2 = 0.909) was 611 ± 4 kg/m3. It also gave a mass density (335.15 K, 10890 kPa, x2 = 0.909) of 616 ± 4 kg/m3, a mass density (335.15 K, 11020 kPa, x2 = 0.909) of 623 ± 4 kg/m3 and a mass density (335.15 K, 11150 kPa, x2 = 0.909) of 628 ± 4 kg/m3. The mass density (335.15 K, 11280 kPa, x2 = 0.909) was 635 ± 4 kg/m3, the mass density (335.15 K, 11440 kPa, x2 = 0.909) was 640 ± 4 kg/m3 and the mass density (335.15 K, 11600 kPa, x2 = 0.909) was 648 ± 4 kg/m3. The mass density (335.15 K, 11790 kPa, x2 = 0.909) was 653 ± 4 kg/m3, the mass density (335.15 K, 12010 kPa, x2 = 0.909) was 661 ± 4 kg/m3 and the mass density (335.15 K, 12240 kPa, x2 = 0.909) was 667 ± 4 kg/m3. For the same molecule, the mass density (335.15 K, 12460 kPa, x2 = 0.909) was 675 ± 4 kg/m3, the mass density (335.15 K, 12750 kPa, x2 = 0.909) was 681 ± 4 kg/m3 and the mass density (335.15 K, 13080 kPa, x2 = 0.909) was 691 ± 4 kg/m3. The mass density (335.15 K, 13400 kPa, x2 = 0.909) was 697 ± 4 kg/m3, the mass density (335.15 K, 13770 kPa, x2 = 0.909) was 706 ± 4 kg/m3 and the mass density (335.15 K, 14150 kPa, x2 = 0.909) was 711 ± 4 kg/m3. For the same molecule, the mass density (335.15 K, 14600 kPa, x2 = 0.909) was 721 ± 5 kg/m3, the mass density (336.35 K, 9960 kPa, x2 = 0.902) was 531 ± 3 kg/m3 and the mass density (336.35 K, 10000 kPa, x2 = 0.902) was 535 ± 3 kg/m3. It also gave a mass density (336.35 K, 10030 kPa, x2 = 0.902) of 538 ± 3 kg/m3, a mass density (336.35 K, 10080 kPa, x2 = 0.902) of 542 ± 3 kg/m3 and a mass density (336.35 K, 10110 kPa, x2 = 0.902) of 545 ± 3 kg/m3. For the same molecule, the mass density (336.35 K, 10150 kPa, x2 = 0.902) was 547 ± 3 kg/m3, the mass density (336.35 K, 10190 kPa, x2 = 0.902) was 551 ± 3 kg/m3 and the mass density (336.35 K, 10230 kPa, x2 = 0.902) was 555 ± 3 kg/m3. For the same molecule, the mass density (336.35 K, 10260 kPa, x2 = 0.902) was 558 ± 4 kg/m3, the mass density (336.35 K, 10310 kPa, x2 = 0.902) was 561 ± 4 kg/m3 and the mass density (336.35 K, 10360 kPa, x2 = 0.902) was 566 ± 4 kg/m3. The mass density (336.35 K, 10390 kPa, x2 = 0.902) was 569 ± 4 kg/m3, the mass density (336.35 K, 10450 kPa, x2 = 0.902) was 573 ± 4 kg/m3 and the mass density (336.35 K, 10540 kPa, x2 = 0.902) was 579 ± 4 kg/m3. For the same molecule, the mass density (336.35 K, 10610 kPa, x2 = 0.902) was 583 ± 4 kg/m3, the mass density (336.35 K, 10710 kPa, x2 = 0.902) was 590 ± 4 kg/m3 and the mass density (336.35 K, 10810 kPa, x2 = 0.902) was 595 ± 4 kg/m3. For the same molecule, the mass density (336.35 K, 10910 kPa, x2 = 0.902) was 602 ± 4 kg/m3, the mass density (336.35 K, 11020 kPa, x2 = 0.902) was 606 ± 4 kg/m3 and the mass density (336.35 K, 11100 kPa, x2 = 0.902) was 611 ± 4 kg/m3. It also gave a mass density (336.35 K, 11200 kPa, x2 = 0.902) of 616 ± 4 kg/m3, a mass density (336.35 K, 11320 kPa, x2 = 0.902) of 620 ± 4 kg/m3 and a mass density (336.35 K, 11420 kPa, x2 = 0.902) of 625 ± 4 kg/m3. The mass density (336.35 K, 11570 kPa, x2 = 0.902) was 631 ± 4 kg/m3, the mass density (336.35 K, 11700 kPa, x2 = 0.902) was 638 ± 4 kg/m3 and the mass density (336.35 K, 11790 kPa, x2 = 0.902) was 641 ± 4 kg/m3. It also gave a mass density (336.35 K, 11950 kPa, x2 = 0.902) of 645 ± 4 kg/m3, a mass density (336.35 K, 12080 kPa, x2 = 0.902) of 649 ± 4 kg/m3 and a mass density (336.35 K, 12210 kPa, x2 = 0.902) of 654 ± 4 kg/m3. For the same molecule, the mass density (336.35 K, 12400 kPa, x2 = 0.902) was 659 ± 4 kg/m3, the mass density (336.35 K, 12570 kPa, x2 = 0.902) was 663 ± 4 kg/m3 and the mass density (336.35 K, 12710 kPa, x2 = 0.902) was 668 ± 4 kg/m3. It also gave a mass density (336.35 K, 12940 kPa, x2 = 0.902) of 673 ± 4 kg/m3, a mass density (336.35 K, 13140 kPa, x2 = 0.902) of 678 ± 4 kg/m3 and a mass density (336.35 K, 13320 kPa, x2 = 0.902) of 684 ± 4 kg/m3. It also gave a mass density (336.35 K, 13580 kPa, x2 = 0.902) of 688 ± 4 kg/m3, a mass density (336.35 K, 13900 kPa, x2 = 0.902) of 694 ± 4 kg/m3 and a mass density (336.35 K, 14180 kPa, x2 = 0.902) of 701 ± 4 kg/m3. The mass density (336.35 K, 14450 kPa, x2 = 0.902) was 706 ± 4 kg/m3, the mass density (336.35 K, 14700 kPa, x2 = 0.902) was 710 ± 4 kg/m3 and the mass density (336.35 K, 14920 kPa, x2 = 0.902) was 715 ± 4 kg/m3. It also gave a mass density (338.15 K, 10080 kPa, x2 = 0.902) of 511 ± 3 kg/m3, a mass density (338.15 K, 10110 kPa, x2 = 0.902) of 515 ± 3 kg/m3 and a mass density (338.15 K, 10180 kPa, x2 = 0.902) of 520 ± 3 kg/m3. The mass density (338.15 K, 10230 kPa, x2 = 0.902) was 524 ± 3 kg/m3, the mass density (338.15 K, 10280 kPa, x2 = 0.902) was 529 ± 3 kg/m3 and the mass density (338.15 K, 10340 kPa, x2 = 0.902) was 533 ± 3 kg/m3. It also gave a mass density (338.15 K, 10380 kPa, x2 = 0.902) of 538 ± 3 kg/m3, a mass density (338.15 K, 10430 kPa, x2 = 0.902) of 542 ± 3 kg/m3 and a mass density (338.15 K, 10500 kPa, x2 = 0.902) of 548 ± 3 kg/m3. The mass density (338.15 K, 10560 kPa, x2 = 0.902) was 552 ± 3 kg/m3, the mass density (338.15 K, 10640 kPa, x2 = 0.902) was 558 ± 4 kg/m3 and the mass density (338.15 K, 10710 kPa, x2 = 0.902) was 563 ± 4 kg/m3. It also gave a mass density (338.15 K, 10780 kPa, x2 = 0.902) of 569 ± 4 kg/m3, a mass density (338.15 K, 10860 kPa, x2 = 0.902) of 573 ± 4 kg/m3 and a mass density (338.15 K, 10910 kPa, x2 = 0.902) of 581 ± 4 kg/m3. It also gave a mass density (338.15 K, 10980 kPa, x2 = 0.902) of 584 ± 4 kg/m3, a mass density (338.15 K, 11080 kPa, x2 = 0.902) of 590 ± 4 kg/m3 and a mass density (338.15 K, 11200 kPa, x2 = 0.902) of 595 ± 4 kg/m3. It also gave a mass density (338.15 K, 11280 kPa, x2 = 0.902) of 600 ± 4 kg/m3, a mass density (338.15 K, 11350 kPa, x2 = 0.902) of 603 ± 4 kg/m3 and a mass density (338.15 K, 11420 kPa, x2 = 0.902) of 606 ± 4 kg/m3. For the same molecule, the mass density (338.15 K, 11510 kPa, x2 = 0.902) was 610 ± 4 kg/m3, the mass density (338.15 K, 11590 kPa, x2 = 0.902) was 615 ± 4 kg/m3 and the mass density (338.15 K, 11630 kPa, x2 = 0.902) was 616 ± 4 kg/m3. For the same molecule, the mass density (338.15 K, 11710 kPa, x2 = 0.902) was 619 ± 4 kg/m3, the mass density (338.15 K, 11790 kPa, x2 = 0.902) was 622 ± 4 kg/m3 and the mass density (338.15 K, 11880 kPa, x2 = 0.902) was 627 ± 4 kg/m3. It also gave a mass density (338.15 K, 11950 kPa, x2 = 0.902) of 629 ± 4 kg/m3, a mass density (338.15 K, 12040 kPa, x2 = 0.902) of 632 ± 4 kg/m3 and a mass density (338.15 K, 12110 kPa, x2 = 0.902) of 634 ± 4 kg/m3. For the same molecule, the mass density (338.15 K, 12240 kPa, x2 = 0.902) was 640 ± 4 kg/m3, the mass density (338.15 K, 12330 kPa, x2 = 0.902) was 642 ± 4 kg/m3 and the mass density (338.15 K, 12460 kPa, x2 = 0.902) was 646 ± 4 kg/m3. It also gave a mass density (338.15 K, 12570 kPa, x2 = 0.902) of 651 ± 4 kg/m3, a mass density (338.15 K, 12700 kPa, x2 = 0.902) of 654 ± 4 kg/m3 and a mass density (338.15 K, 12880 kPa, x2 = 0.902) of 659 ± 4 kg/m3. It also gave a mass density (338.15 K, 13010 kPa, x2 = 0.902) of 663 ± 4 kg/m3, a mass density (338.15 K, 13200 kPa, x2 = 0.902) of 668 ± 4 kg/m3 and a mass density (338.15 K, 13320 kPa, x2 = 0.902) of 671 ± 4 kg/m3. It also gave a mass density (338.15 K, 13480 kPa, x2 = 0.902) of 675 ± 4 kg/m3, a mass density (338.15 K, 13710 kPa, x2 = 0.902) of 680 ± 4 kg/m3 and a mass density (338.15 K, 13860 kPa, x2 = 0.902) of 684 ± 4 kg/m3. The mass density (338.15 K, 14080 kPa, x2 = 0.902) was 689 ± 4 kg/m3, the mass density (338.15 K, 14300 kPa, x2 = 0.902) was 693 ± 4 kg/m3 and the mass density (338.15 K, 14560 kPa, x2 = 0.902) was 699 ± 4 kg/m3. For the same molecule, the mass density (338.15 K, 14780 kPa, x2 = 0.902) was 700 ± 4 kg/m3 and the mass density (338.15 K, 15010 kPa, x2 = 0.902) was 705 ± 4 kg/m3.
